Experimental findings from patent US8216551B2, “In vivo system to monitor tissue responses in birds” (The Board of Trustees of the University of Arkansas, priority 2008, dated 2012) are described below.

Test [1] relates to feather pulp. The experiment in a line: Local tissue response to LPS or PHA injected into feathers and wing webs. In kind it is in vivo, chicken. Particulars: for composition of the infiltrate / MHC class II expression: 6 hours post-injection; for MHC class II expression: immunohistochemistry; for leukocyte infiltration: in vivo.
The test system of test [2] is feather pulp. Description: Local tissue response to injection of IFN-γ into growing feathers. The test is classed as in vivo, chicken. Conditions: for mean score of extent of mononuclear infiltration: score 1=no infiltration.

Consider lipopolysaccharide [LPS], for which, in the test with feather pulp [1], the “composition of the infiltrate” value is recorded as “primarily of heterophils”, the “MHC class II expression” value was “noticeable increase” and the leukocyte infiltration entry is recorded as “extensive leukocyte infiltration”.

On to phytohaemagglutinin [PHA], for which, in the test on feather pulp [1], the “composition of the infiltrate” value is “heterophils and mononuclear cells”; the “MHC class II expression” value is reported as “substantially increased”; the leukocyte infiltration entry is reported as “extensive leukocyte infiltration”.

B1: IFN-γ: recombinant chicken IFN-γ (protein, UniProt P49708 20-164, looked up)
Interferon gamma: HTASSLNLVQLQDDIDKLKADFNSSHSDVADGGPIIVEKLKNWTERNEKRIILSQIVSMYLEMLENTDKSKPHIKHISEELYTLKNNLPDGVKKVKDIMDLAKLPMNDLRIQRKAANELFSILQKLVDPPSFKRKRSQSQRRCNC
Turning to B1, the “mean score of extent of mononuclear infiltration” value in the test with feather pulp [2] (6 h post-injection, 5=extensive infiltration throughout the entire pulp) was 1.6±0.1; with feather pulp [2] (1 day post-injection, 5=extensive) it was 4.0±0.5; in the test on feather pulp [2] (2 days post-injection, 5=extensive), 3.2±0.6; with feather pulp [2] (3 days post-injection, 5=extensive), 3.0±0.9. Besides, in the test with feather pulp [2] (by 6 h, preliminary), the “histological analysis, cell infiltration into the feather pulp” value was “mononuclear cell infiltration into the feather pulp, but no granulocytes”.
